The source of these data is ChEMBL document CHEMBL1133932, “Synthesis and biological evaluation of L- and D-configurations of 2',3'-dideoxy-4'-C-methyl-3'-oxacytidine analogues” (Bioorg Med Chem Lett, 2001).

Format in all cases: functional, cell-based
The test system of assay [1] is B16-F10. As to the kind of experiment: In vitro inhibition of B16F10 melanoma cell replication by the compound. Particulars: Mus musculus.
Assay [2] relates to CCRF-CEM. Put plainly: In vitro inhibition of CCRF-CEM lymphoblastic leukemia cell replication by the compound. Conditions: Homo sapiens.
Assay [3] deals with L1210. Put plainly: In vitro inhibition of L1210 leukemia cell replication by the compound at. Conditions: Mus musculus.
Assay [4] relates to P388. Put plainly: In vitro inhibition of P388 leukemia cell replication by the compound. Particulars: Mus musculus.
The test system of assay [5] is L1210. Put plainly: In vitro inhibition of L1210 leukemia cell replication by the compound. Conditions: Mus musculus.

As usually defined, the IC50 is the concentration that inhibits the measured activity by half. As to `CC1(CO)OCC(n2cc(F)c(N)nc2=O)O1` (configuration not stated), the concentration for half-maximal inhibition (IC50) in assay [1], in assay [2], in assay [3] and in assay [4] was greater than 100 µM throughout.
For `C[C@]1(CO)OCC(n2cc(F)c(N)nc2=O)O1` (some centres not stated), the IC50 in assay [1], in assay [2], in assay [4] and in assay [5] was greater than 100 µM each time.
As for `C[C@]1(CO)OCC(n2ccc(N)nc2=O)O1` (single isomer, unassigned), the IC50 stood at 100 µM in assay [1], 30 µM in assay [2], 5 µM in assay [4] and 45 µM in assay [5].
On the same counts, the results for `C[C@]1(CO)OCC(n2cc(F)c(N)nc2=O)O1` (single isomer, unassigned) are greater than 100 µM, greater than 100 µM, 50 µM and greater than 100 µM.
The corresponding values for `CC1(CO)OCC(n2ccc(N)nc2=O)O1` (configuration not stated) are 100 µM, 30 µM, 10 µM and 50 µM.
With `CC1(CO)OC[C@@H](n2ccc(N)nc2=O)O1` (some centres not stated), the half-inhibitory concentration (IC50) in assay [1], in assay [2], in assay [4] and in assay [5] was greater than 100 µM in each case.
With `CC1(CO)OC[C@@H](n2cc(F)c(N)nc2=O)O1` (some centres not stated), the IC50 in assay [1], in assay [2], in assay [4] and in assay [5] was greater than 100 µM in each case.
`C[C@]1(CO)OCC(n2ccc(N)nc2=O)O1` (some centres not stated): the IC50 in assay [1] was 100 µM; in assay [2], greater than 100 µM; in assay [4] it was greater than 100 µM; in assay [5], greater than 100 µM.
